Data published in patent publication US20260176249A1, “PROTEIN KINASE INHIBITOR, PREPARATION METHOD THEREFOR, AND APPLICATION THEREOF” (SHANDONG LUYE PHARMACEUTICAL CO., LTD., priority 2021, published 2026).

Experiments:
[1] = Permeability and efflux transporter substrate evaluation in Caco-2 cells; format: in vitro ADME; design: Papp A→B at 120 min / Papp B→A at 120 min / efflux ratio at 120 min / Papp at 120 min: dose or concentration left out as unconfirmed; details: human; for Papp at 120 min: Caco-2, pH 7.4, read-out: Classification Permeability; for Papp A→B at 120 min / Papp B→A at 120 min: pH 7.4, pH 7.40; for Papp A→B at 120 min: Caco-2, apical to basolateral; for Papp B→A at 120 min: Caco-2, basolateral to apical
Protocol: (§1) The cells were cultured in a carbon dioxide incubator for 21-28 days before being used for transport experiments. During this period, the culture medium was changed every four to five days.
(§2) This project uses Hank's balanced salt buffer (pH 7.40±0.05) containing 10 mM HEPES as the transport buffer. The culture medium was removed from the culture plate and the cells were washed twice with preheated transport buffer (approximately 75 μL and 40 mL of transport buffer for each apical well and basolateral receiver plate respectively). The donor solution and receiver solution were added to the corresponding cell plate wells (75 and 250 μL for each apical and basolateral well respectively), and the bidirectional transport experiment was started (apical to basolateral (A-B) and basolateral to apical (B-A)). The test concentration of the test substance was […], and two replicate wells were made for each dosing concentration. The test concentration of Digoxin was […], with dosing bidirectionally; the test concentrations of nadolol and metoprolol were both […], and they were dosed in one direction (A-B direction), and two replicate wells were made for each of the three control compounds.
(§3) The initial donor solution is the TO sample. After adding the sample, it was mixed with the transport buffer and stop solution in a certain proportion.
(§4) All samples were vortexed, and then centrifuged at 3220×g for 20 min at 20° C. A proper volume of supernatant was transferred to a sample assay plate, and the sample was stored at 2-8° C. if it was not analyzed immediately after the plate was sealed, and LC MS/MS method was used for analysis.
(§5) The Lucifer Yellow Rejection Assay was used to test the integrity of the Caco-2 cell layer.
(§6) The following formulas were used to calculate the apparent permeability coefficient (Papp, cm/s), efflux ratio (ER), and solution recovery (%) (% Solution Recovery).
(§7) [formula] [formula] [formula] • VR is the volume of the receiver side solution (side A is 0.075 mL, side B is 0.25 mL); Area is the relative surface area of the cell monolayer (0.0804 cm^2); Time is the incubation time (7200 s); C0 is the initial concentration (nM) of the test substance at the donor side or the peak area ratio of the control compound; VD is the volume of the donor side (side A is 0.075 mL, side B is 0.25 mL); CD and CR are the final concentration (nM) of the test substance at the donor side and the receiver side respectively or the peak area ratio of the control compound; • Lucifer yellow transmittance rate (% Lucifer Yellow) is calculated using the following formula:
(§8) [formula] • RFUApical and RFUBasolateral are the relative fluorescence intensity of lucifer yellow at the apical and basolateral sides respectively. VApical and VBasolateral are the sample loading volumes at the apical and basolateral sides respectively (0.075 and 0.25 mL respectively).

Caco-2 cells = assay: as above; format: in vitro ADME; design: Papp A→B at 120 min / Papp B→A at 120 min / efflux ratio at 120 min / Papp at 120 min: dose or concentration left out as unconfirmed; details: Caco-2
Protocol: as §1, §2, §3, §4, §5, §6, §7, §8

[2] = Metabolic stability in mouse liver microsomes; format: in vitro ADME
Protocol: (§9) a. Preparation of phosphate buffer: The phosphate buffer powder was dissolved in 100 mL of pure water to prepare a phosphate buffer solution with a pH of 7.4 and a concentration of 100 mM, which was stored in a 4° C. refrigerator for later use.
(§10) b. All samples as well as the reference testosterone were dissolved in DMSO to obtain a 10 mM stock solution. The 10 mM stock solution was diluted to 100 μM with acetonitrile to obtain a working solution for later use.
(§11) c. Preparation of liver microsome working solution: Each of the mouse, rat and human liver microsome stock solutions (at concentration of 20 mg/mL) was taken and diluted to 0.56 mg/mL with 100 mM phosphate buffer solution to obtain the liver microsome working solution.
(§12) d. Preparation of solution: An appropriate amount of MgCl2 was weighed and used to prepare a MgCl2 solution at a concentration of 60 mM using 100 mM phosphate buffer solution. An appropriate amount of NADPH was weighed and used to prepare a NADPH solution at a concentration of 20 mM using 100 mM phosphate buffer solution. An equal volume of 60 mM MgCl2 solution was added to prepare an NADPH working solution containing 10 mM NADPH and 30 mM MgCl2. An acetonitrile solution containing 20 ng/mL tolbutamide was prepared as the stop solution.
(§13) e. Liver microsome incubation: 2 μL of each compound and the positive drug testosterone working solution were added to 178 μL of liver microsome working solution (0.56 mg/mL), mixed gently, and pre-incubated in a vibrating constant temperature water bath pot at 37° C. for 10 min. After adding 20 μL of NADPH working solution, the mixture was placed in a vibrating constant temperature water bath pot at 37° C. and timed incubation was started for 5, 10, 20, 30 and 60 min.
(§14) f. Stopping reaction: After the corresponding time of incubation, 400 μL of stop solution was added to stop the reaction, and then the sample was immediately shaken for 1 min. The sample was centrifuged at 13500 rpm for 10 min at 10° C. After centrifugation, the supernatant was removed, diluted with water according to the needs of each compound, and analyzed by LC-MS. For the 0-minute sample, the stop solution was first added and mixed evenly with the liver microsomes, and then the NADPH working solution was added. For the negative control sample, 20 μL of 30 mM MgCl2 solution was added instead of the NADPH working solution.
(§15) T1/2 and CLint(mic) were calculated by the following formula.
(§16) [formula] [formula] • CLint(mic)=0.693/T1/2/liver microsomal protein concentration during incubation (mg/mL) • CLint(ver)=CLint(mic)*liver microsomal protein (mg)/liver weight (g)*liver weight to body weight ratio
(§17) Liver microsomal protein (mg)/liver weight (g): the value is 45 in both animal and human species.
(§18) Liver weight to body weight ratio: the parameters for mice, rats and humans are 88, 40 and 20 g/kg respectively.

[3] = Metabolic stability in rat liver microsomes; format: in vitro ADME
Protocol: as §9, §10, §11, §12, §13, §14, §15, §16, §17, §18

[4] = Metabolic stability in human liver microsomes; format: in vitro ADME
Protocol: as §9, §10, §11, §12, §13, §14, §15, §16, §17, §18

HCT116 cells [5] = assay: In vivo pharmacodynamic study of compound 18 in HCT116 tumor-bearing mice; design: species or system Balb/C Nude mice; details: 10 mg/kg once a day by gavage
Protocol: (§19) a. Establishment of tumor-bearing mouse model: HCT116 cells in the logarithmic growth phase were taken and cultured, the cells were collected and counted, and then subcutaneously inoculated into Balb/C Nude mice at 1×10^6/mouse. The tumor volume and body weight of the mice were measured regularly. 7 days after inoculation, mice with tumor volume of 150 mm3 were randomly divided into groups and treated with corresponding drugs.
(§20) 3. Data processing: All data were organized in EXCEL, and One-way ANOVA analysis and drawing were performed using GraphPad Prism 8.0 software. Statistical significance was achieved when p<0.05.
1. Experiment materials: Same as Test example 5.
a. Establishment of tumor-bearing mouse model: Same as Test example 5.
b. […] The administration was performed once a day by gavage for 7 consecutive days, and the tumor volume and body weight of the mice were measured regularly.
3. Data processing: Same as Test example 5.

HCT116 cells [6] = assay: In vivo pharmacodynamic study of compound 1 in HCT116 tumor-bearing mice; design: species or system Balb/C Nude mice; details: 20 mg/kg once a day by gavage, vs sham group
Excerpt: Balb/C Nude mice, SPF grade, male, weighing 18-20 g, were purchased from Jiangsu Gempharmatech Co., Ltd.
HCT116 cells were purchased from ATCC.
Matrigel Matrix, Cat. No. 354248, was purchased from Becton, Dickinson and Company.
Kolliphor® HS 15, Cat. No. 42966, was purchased from Sigma-Aldrich.
as §19
b. […] The administration was performed once a day by gavage for 21 consecutive days, and the tumor volume and body weight of the mice were measured regularly.
as §20

SMILES: CN1CCN(c2ccc(OC(F)(F)F)c(Nc3ncc4ccc5c(C(N)=O)nn(CCF)c5c4n3)c2)CC1 [Compound 18]
- Papp at 120 min [1]: 0.5 to 2.5 ×10⁻⁶ cm/s
- Papp A→B at 120 min [1]: 2.03 ×10⁻⁶ cm/s
- Papp B→A at 120 min [1]: 3.36 ×10⁻⁶ cm/s
- Classification Efflux transporter substrate (Caco-2 cells): Very unlikely or not (ERa < 2.00)
- 60 min remaining amount [2]: 4.32%
- Clearance rate [2]: High
- CLint scaled at 1 µM ([2]; mouse, pH 7.4): 409 mL/min/kg
- half-life at 1 µM ([2]; mouse, pH 7.4): 13.4 min
- microsomal CLint at 1 µM ([2]; mouse, pH 7.4, read-out: CLint(mic)): 103 µL/min/mg
- 60 min remaining amount [3]: 2.74%
- Clearance rate [3]: High
- CLint scaled at 1 µM ([3]; rat, pH 7.4): 505 mL/min/kg
- half-life at 1 µM ([3]; rat, pH 7.4): 4.94 min
- microsomal CLint at 1 µM ([3]; rat, pH 7.4, read-out: CLint(mic)): 281 µL/min/mg
- 60 min remaining amount [4]: 7.83%
- Clearance rate [4]: High
- CLint scaled at 1 µM ([4]; human, pH 7.4): 78.7 mL/min/kg
- half-life at 1 µM ([4]; human, pH 7.4): 15.9 min
- microsomal CLint at 1 µM ([4]; human, pH 7.4, read-out: CLint(mic)): 87.4 µL/min/mg
- body weight decrease compared to before administration (HCT116 cells [5]; 5 days): 7.6%
- body weight decrease compared to before administration (HCT116 cells [5]; 7 days): 16.1%
- tumor inhibition rate (HCT116 cells [5]; 7 days, vs control group): 70.9%

SMILES: CN1CCN(c2ccc(OC(F)(F)F)c(Nc3ncc4ccc5c(C(N)=O)nn(CCO)c5c4n3)c2)CC1 [Compound 1]
- Papp at 120 min [1]: 0.5 to 2.5 ×10⁻⁶ cm/s
- Papp A→B at 120 min [1]: 0.965 ×10⁻⁶ cm/s
- Papp B→A at 120 min [1]: 20.8 ×10⁻⁶ cm/s
- Classification Efflux transporter substrate (Caco-2 cells): Likely (ERa ≥ 2.00)
- tumor inhibition rate (HCT116 cells [6]; 11 days): 82.0%
- tumor inhibition rate (HCT116 cells [6]; 16 days): 86.5%
- tumor inhibition rate (HCT116 cells [6]; 21 days): 88.3%
